Here are results for one compound from article PMC10917278, “Structural insights into the modulation Of SOD1 aggregation By a fungal metabolite Phialomustin-B: Therapeutic potential in ALS” (PLOS ONE, 2024).

For experiment [1], the target named is T1, SOD1^G10P (Homo sapiens, UniProt P00441, G11P).
T1 construct: His-tag (cleaved yes); made in house; host or cells: E. coli BL21-DE3
In words: MST binding assay, site-specific mutant SOD1^G10P. The conditions noted are these: PBS buffer, mutant 25 nM, PB 30.5 nM to 250 μM, 25 °C, SEM n = 3, read-out: binding affinity Kd. On the procedure:
(§1) To further validate the binding of PB to SOD1, site-directed mutagenesis was performed for the interacting residues at the binding sites of PB. The point mutations generated on the SOD1 protein are K9F, G10P, L42R, and A123F. The MST assay was carried out on these mutants against PB (Fig 5). The dose-response curve with the highest signal-to-noise ratio, high response amplitude, and lowest error rate was selected for measuring the binding affinity (Kd) value. […] Binding at the electrostatic loop is affected majorly by mutating residues at A123 to phenylalanine and L42 to arginine. […] Taken together, the binding affinities of these mutants confirm the ligand bindings at these sites of SOD1 are specific.
(§2) Fig 5 MST interaction analysis of fluorescently labeled SOD1 mutants against PB. The binding of PB to fluorescently Cys-labeled SOD1- variants is quantified in PBS buffer. The concentration of PB varied from 30.5 nM to 250 μM, while the respective mutants were kept constant at 25 nM. MST experiments were conducted at 20% LED excitation and medium MST power at 25 °C. […] Error bars indicate the standard error of the mean, SEM (n = 3). […] The ligand PB is printed only in the titles of panels a-d, so the mutant names are used as the substance labels.
(§3) Binding studies were performed for SOD1^WT and the ligands using microscale thermophoresis (MST). […]

Experiment [2] concerns the target T2, SOD1^L42R (Homo sapiens, UniProt P00441, L43R).
T2 construct: His-tag (cleaved yes); made in house; host or cells: E. coli BL21-DE3
As to the kind of experiment: MST binding assay, site-specific mutant SOD1^L42R. As to conditions: PBS buffer, mutant 25 nM, PB 30.5 nM to 250 μM, 25 °C, SEM n = 3, read-out: binding affinity Kd. On the procedure: as §1, §2, §3

T1 sequence (P00441 whole entry G11P): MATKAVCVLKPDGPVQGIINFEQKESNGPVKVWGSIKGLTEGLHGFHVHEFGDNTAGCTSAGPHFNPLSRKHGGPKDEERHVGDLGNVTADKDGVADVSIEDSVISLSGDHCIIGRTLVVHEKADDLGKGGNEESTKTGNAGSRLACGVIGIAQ
T2 sequence (P00441 whole entry L43R): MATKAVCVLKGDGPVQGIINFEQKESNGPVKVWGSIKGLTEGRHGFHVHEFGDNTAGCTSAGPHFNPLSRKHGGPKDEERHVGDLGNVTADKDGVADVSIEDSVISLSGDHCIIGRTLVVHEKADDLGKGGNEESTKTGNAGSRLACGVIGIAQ

Broadly, the Kd is the constant that tells how readily two partners part at equilibrium. Take `CCCC[C@H](C)/C=C(C)/C=C/C(=O)O` [PB, (S, 2E, 4E)-4,6-dimethyldeca-2,4-dienoic acid]: the results for the Kd in experiment [1] and in experiment [2] were 15.9 ± 2.65 µM and 225 ± 4.29 µM, respectively.
